Experimental data published in article PMC11339798, “Dual inhibitors of Pseudomonas aeruginosa virulence factors LecA and LasB” (Chemical Science, 2024).

Assay: Disulfide formation assay: thiol stability in P. aeruginosa culture supernatant (LC-MS)
Format: in vitro ADME
Details: Pseudomonas aeruginosa, pH 7.4, P. aeruginosa culture supernatant, 37 °C, read-out: thiol half-life (conversion into disulfide)
Description: Disulfide formation in the presence of P. aeruginosa culture supernatant was studied for the two inhibitors 11 and 12 and analyzed by liquid chromatography-mass spectrometry (LC-MS) (Fig. 3B). Disulfides 26 and 27 were synthesized via oxidation with H2O2 in DMSO/H2O and used as reference compounds for the stability assay (Fig. 3A). […] The separation of those two peaks of the benzylated derivative 26 using preparative HPLC gave 26a and 26b (m/z of 901.28, Fig. S1 ^†).
In the presence of the bacterial culture supernatant of P. aeruginosa, the conversion of thiols 11 and 12 into the corresponding disulfides 26 and 27 was monitored at 37 °C and thiol half-lives of 48 min for 11 and 70 min for 12 were determined (Fig. 3B).
Disulfide formation assay
The stability of two thiols 11 and 12 and their ability to form the corresponding disulfides was analyzed by HPLC-MS. […] Samples were drawn over 4.5 hours and analyzed by LC-MS using a RP-18 column 100/2 Nucleoshell RP18plus, 2.7 μm from Macherey-Nagel, Germany (H2O/MeCN + 0.1% formic acid, 15 – 55% MeCN, retention time (t R) 5.8 min (11 or 12), 6.1 min and 6.3 min (disulfide products 26 or 27) on a Thermo Dionex Ultimate 3000 HPLC coupled to a Bruker amaZon SL mass spectrometer, with UV detection at 254 nm). Thiol half-lives were determined by analysis of the obtained graphs and values of 80 min for 11 and 46 min for 12 were obtained […]

| SMILES | half-life at 1.25 mM [h] |
| --- | --- |
| CC(C)CC(S)C(=O)Nc1ccc(S[C@@H]2O[C@H](CO)[C@H](O)[C@H](O)[C@H]2O)cc1 (some centres unmarked) [Compound 12] | 0.767 |
| O=C(Nc1ccc(S[C@@H]2O[C@H](CO)[C@H](O)[C@H](O)[C@H]2O)cc1)C(S)Cc1ccccc1 (some centres unmarked) [Compound 11] | 1.33 |
